From publication PMC5902452, “In silico optimization of a guava antimicrobial peptide enables combinatorial exploration for peptide design” (Nature Communications, 2018)
In brackets after ≈: the same amount, converted by molar mass. Peptide text beside a SMILES is read from it.

Columns and labels:
[1] = test system: Candida albicans ATCC 90028; format: cell-based; conditions: ATCC 90028, 18 h
From the text: Lysogeny Broth (LB) was used for cultures of Acinetobacter baumannii ATCC 19606, Enterococcus faecalis ATCC 29212, Escherichia coli ATCC 25922, Klebsiella pneumoniae ATCC 13883, Pseudomonas aeruginosa ATCC 27853, and S. aureus ATCC 25923. Brain Heart Infusion (BHI) broth was used for cultures of Listeria ivanovii Li 4pVS2 and Streptococcus pyogenes ATCC 19615. Yeast peptone dextrose (YPD) medium was used for Candida species (C. albicans ATCC 90028 and C. parapsilosis ATCC 22019). MH (Mueller Hinton) broth was used for suspend centrifuged culture of bacteria and yeasts in logarithmic phase to an A630 of 0.01 (~10^6 cfu mL^−1), except for S. pyogenes, L. ivanovii, and E. faecalis that were suspended in their respective growth medium. […] A microplate reader (UVM 340, Asys Hitech) was used to monitor the antimicrobial susceptibility by measuring the change in A630. […] Each experiment was performed in triplicate with positive (0.7% formaldehyde) and negative (without peptide) inhibition controls.

[2] = test system: E. coli ATCC 25922; test: Membrane polarization assay with DiSC3(5); format: cell-based, Escherichia coli; conditions: 12.5 µM (twofold above the MIC), 20 min, 37 °C
Method: When the cytoplasmic membrane is intact, the fluorescent probe DiSC3(5) accumulates into the cytoplasmic membrane and then aggregates, causing self-quenching of the fluorescence. In the presence of a membrane-depolarizing agent, DiSC3(5) is released into the medium, leading to an increase in fluorescence that can be monitored over time[59]. Briefly, exponentially growing bacteria were centrifuged (1000 × g, 10 min, 4 °C), washed with PBS, and resuspended in the same buffer to an A630 of 0.1; then 700 µL of bacteria were pre-incubated with 1 µM DiSC3(5) in the dark during 10 min at 37 °C, and then 100 µL of 1 mM KCl were added in order to equilibrate the cytoplasmic and external K^+ concentrations. […] Three independent experiments were performed and results correspond to a representative experiment with negative (PBS) and positive (melittin) controls.

[3] = test system: HEK-293 cells; test: Cytotoxicity, MTT-based microassay; format: cell-based, human; conditions: purified peptide, HEK-293, 72 h, 37 °C, 12.5–200 µM, mean of three independent experiments in triplicate, read-out: Active concentration (inhibitory concentration 50, IC50)
Method: HEK-293 cells were cultured in DMEM medium, and incubated at 37 °C in a humidified atmosphere of 5% CO2. Cell viability was quantified after peptide incubation using a methylthiazolyldiphenyl-tetrazolium bromide (MTT)-based microassay. […] Then, 10 µL of MTT (5 mg mL^−1 in PBS) was added to each well and the cells were further incubated for 4 h in the dark. The formazan crystals formed by mitochondrial reductases in intact cells are insoluble in aqueous solutions and precipitate. Formazan crystals were dissolved using a solubilization solution (40% dimethylformamide in 2% glacial acetic acid, 16% sodium dodecyl sulfate, pH 4.7) followed by 1 h incubation at 37 °C under shaking (150 rpm). Finally, the absorbance of the resuspended formazan was measured at 570 nm. Data were analyzed with GraphPad Prism® 5.0 software to determine the inhibitory concentration 50 (IC50), which corresponds to the peptide concentration producing 50% cell death. Results were expressed as the mean of three independent experiments performed in triplicate.

[4] = test system: human erythrocytes; test: Hemolytic assay; conditions: SPOT-synthesized crude peptides; human red blood cells in NaCl 0.85%, 1 h, 37 °C; hemoglobin release at 546 nm; highest concentration 200 μg mL−1; 100% of hemolysis was not observed
Method: Fresh human venous blood was collected from volunteers in Vacutainer collection tubes containing sodium heparin as an anticoagulant (BD Biosciences, Franklin Lakes, NJ). The blood was centrifuged applying 151 × g force (1500 rpm) and the serum was removed and the blood cells were replaced and washed three times with the same volume of sterile NaCl 0.85% solution. Concentrated red blood cells were diluted tenfold in NaCl 0.85% solution and then exposed at twofold dilutions of peptides for 1 h at 37 °C, at identical concentrations used for antimicrobial assays, in the ratio of 1:1 (v/v), achieving a final volume of 100 μL. The assay was carried out in 96-well polypropylene microtiter plates. The positive control wells contained 1% of Triton X-100, representing 100% cell lysis, and negative control wells contained sterile saline. Hemoglobin release was monitored chromogenically at 546 nm using a microplate reader.

[5] = test system: C. albicans clinical isolate; test: Antibiofilm assay (planktonic growth and biofilm formation, crystal violet); format: cell-based, Candida albicans
Method: Overnight cultures of microorganisms [E. coli 0157, methicillin-resistant S. aureus (MRSA), K. pneumoniae 1825971, or C. albicans clinical isolate obtained from a blood culture maintained at LACEN (Laboratório Central de Saúde do Distrito Federal, a Brazilian reference laboratory for clinical isolates in Brasília, Brazil)] grown in LB broth (BD Difco) were diluted 1 in 100 in LB and Todd-Hewitt broth (BD Difco) or BM2 minimal medium [62 mM potassium phosphate buffer, pH 7.0, 7 mM (NH4)2SO4, 2 mM MgSO4, 10 μM FeSO4, 0.5% glucose], and 100 μL per well was added into 96-well round-bottom microplates. Absorbance at 600 nm was used to assess the planktonic cell growth. Non-adherent planktonic cells were removed from microtiter wells and washed twice with deionized water. Adherent cells were stained with 0.1% crystal violet for 20 min. The microplate wells were washed twice with deionized water, air dried, and solubilized with 110 μL of 70% ethanol. […] Biofilm formation was assessed by measuring the absorbance at 600 nm using a microplate reader (Bio-Tek Instruments, Inc., USA). The microdilution method for cationic peptides was used to determine the MIC for planktonic cells. Three biological replicates were performed for each experiment involving eight technical replicates.

[6] = test system: P. aeruginosa H1001 (fliC::luxCDABE); format: cell-based, Pseudomonas aeruginosa; conditions: SPOT-synthesized unpurified crude peptide (~70% purity); bioluminescent engineered P. aeruginosa; BM2 medium; 4 h, 37 °C; reduction of luminescence; 200 to 3 μg mL−1 tested
Method: A peptide array composed of 20 peptides (15 guavanins, 4 Pg-AMP1 fragments, and magainin 2) was designed and synthesized by Kinexus Bioinformatics Corporation (Vancouver, BC). Peptides were produced in a standard mass of 80 μg by using cellulose support in SPOT technology. The crude synthetic peptides were obtained from cellulose membrane discs that had already been treated with ammonia gas to release the peptides from the membrane. Peptides were then dissolved overnight in distilled water and subsequently evaluated for their biological activities, as described below.
The antimicrobial activity of the synthesized peptides was evaluated against an engineered luminescent P. aeruginosa H1001 (fliC::luxCDABE) strain in 96-well microplates. Aqueous solutions of peptides released from the cellulose spots were diluted twofold in BM2 medium [62 mM potassium phosphate buffer pH 7; 2 mM MgSO4; 10 μM FeSO4; 0.4% (wt/vol) glucose] down the eight wells of a 96-well plate, achieving a final volume of 25 μL in each well. Subsequently, 50 μL of overnight culture of P. aeruginosa H1001 (fliC::luxCDABE) were subcultured in 5 mL of fresh LB media and grown until they reached an OD600 of 0.4. This growing bacteria culture was then diluted 4:100 (v/v) into fresh BM2 media and 25 μL of this diluted bacterial culture was transferred to the microplate wells containing 25 μL of peptide solution. The final peptide concentrations tested ranged from 200 to 3 μg mL^−1. The plates were incubated for 4 h at 37 °C with constant shaking at 50 rpm. Luminescence was measured on a Tecan […]luor Plus Microplate Reader (Tecan US, Morrisville, NC). The antimicrobial activity was evaluated by the ability of the peptides to reduce the luminescence of P. aeruginosa-lux strain compared to untreated cells. The AMP magainin 2 and the carbapenem meropenem were used as positive controls and distilled water was used as a negative control.

For `CC[C@H](C)[C@H](NC(=O)[C@H](CCCNC(=N)N)NC(=O)[C@H](Cc1ccc(O)cc1)NC(=O)CNC(=O)[C@H](Cc1ccc(O)cc1)NC(=O)[C@H](CCCNC(=N)N)NC(=O)[C@H](CC(C)C)NC(=O)[C@H](C)NC(=O)[C@H](CCC(N)=O)NC(=O)[C@H](CCC(=O)O)NC(=O)[C@@H](NC(=O)[C@H](CCC(N)=O)NC(=O)[C@H](CCCNC(=N)N)NC(=O)[C@H](CCSC)NC(=O)[C@H](Cc1ccc(O)cc1)NC(=O)[C@H](CCC(N)=O)NC(=O)[C@@H](N)CCCNC(=N)N)[C@@H](C)CC)C(=O)N[C@@H](CO)C(=O)N[C@@H](CCCNC(=N)N)C(=O)N[C@@H](CCCNC(=N)N)C(N)=O` [Guavanin 2] (H-RQYMRQIEQALRYGYRISRR-NH2), which “Active concentration (MIC)” value [1] is on record?
The value was over 200 µM.

What about the “DiSC3(5) fluorescence change (membrane potential)” value [2] of the same compound?
Its value is “decrease in DiSC3(5) fluorescence”.

What about the IC50 [3] of the same compound?
The IC50 was over 200 µM.

And the Hemolysis [4]?
The Hemolysis was over 200 µg/mL.

And the antibiofilm activity [5]?
Its antibiofilm activity is “able to reduce C. albicans biofilms”.

And the “concentration from which biofilm formation is inhibited (p<0.05)” value ([5]; crystal violet, Student's t-test, three replicates)?
Its value is 32 µg/mL.

And the “concentration from which planktonic cells are affected (p<0.05)” value ([5]; planktonic cells not eliminated, Student's t-test, three replicates)?
The value was 16 µg/mL.

And the MIC [6]?
The MIC was 6.25 µg/mL (≈ 2.36 µM).
